Like-named read-outs stand apart in the source and are kept apart here.
Experiments:
CYP2C9 = CYP2C9 (Homo sapiens, UniProt P11712)
Method: (§1) Sandwich-Cultured Hepatocytes (SCH) were prepared using freshly isolated hepatocytes or cryopreserved hepatocytes. Freshly isolated hepatocytes were plated on 24-well cell culture plates, rinsed and fed with the appropriate species specific Qualyst Transporter Solutions (QTS, Durham, North Carolina, United States of America) propriety culture medium (QualGro™). Cells were maintained in the appropriate species specific medium until consumed in studies.
(§2) Cryopreserved hepatocytes were thawed following manufacturer's thawing instructions. Cryopreserved hepatocytes were subsequently suspended in QTS propriety hepatocyte seeding medium (QualGro™ Seeding Medium) at a density of 0.7-0.8 million viable cells/mL onto BioCoat® 24-well cell culture plates. Following plating, cells were allowed to attach for 2-4 hours, rinsed and fed with warm (37° C.) seeding medium. Eighteen to 24 hours later, cells were fed and overlaid with the appropriate species specific QTS propriety culture medium (QualGro™) supplemented with extracellular matrix (ECM), Matrigel® (0.25 mg/mL). Cells were maintained in QualGro™ Hepatocyte Culture Medium until consumed in studies.
(§3) Cells were cultured as described above through day 6 of culture. On day 7 of culture, spent culture medium was aspirated and replaced with HBSS incubation solution with or without 4% bovine serum albumin (BSA). […] In situ incubations were performed in cell culture incubators (37° C.; 5% CO2; 100% humidity) shaking at 120 rpm for 20-30 minutes. Following the incubation period, incubation solutions were collected and stored at −80° C. until processed for bioanalysis.
(§4) In situ incubations were analyzed for the detection of P450 mediated metabolite formation of hydroxymidazolam from midazolam and hydroxyibuprofen from ibuprofen. Briefly, a volume of 300 μL of internal standard solution (methanol containing 25 nM triazolam and d3-ibuprofen) and a volume of 100 μL of HBSS or HBSS plus 4% BSA were added to a protein precipitation plate (Millipore MDRPNP4; EDM Millipore, Billerica, Massachusetts, United States of America) stacked on a 96 deep well block. The plate was allowed to shake for 1 to 2 minutes prior to centrifugation for collection of the filtered supernatant. The sample filtrate was evaporated to dryness and the samples were reconstituted in 200 μL sample diluent, 40/60 methanol/10 mM ammonium acetate and mixed for at least 20 min on a plate shaker. The reconstituted samples were transferred to a Millipore 0.45 μm filter plate (Millipore MSHVN45) and filtered into a Costar 3957 plate by centrifugation and sealed with a silicone capmat prior to LC-MS/MS analysis.

CYP3A4 = test system: CYP3A4
Method: as §1, §2, §3, §4

[1] = test system: sandwich-cultured rat hepatocytes; assay: Intrinsic biliary clearance in sandwich-cultured rat hepatocytes; settings: for Observed Cl (ml/min/Kg) BSA: measured in the presence of BSA
Excerpt: Representative calculations that can be employed in accordance with the presently disclosed subject matter include the calculations of a biliary excretion index and a biliary clearance value. […] In some embodiments, the BEI is a calculation of the uptake and excretion of the candidate compound as follows: 100%×{(uptake in the culture with intact bile canaliculi minus uptake within hepatocytes only in the Ca^2+-free culture) divided by (uptake in the culture with intact bile canaliculi)}. In some embodiments, the biliary clearance calculation is performed as follows: (uptake in the culture with intact bile canaliculi minus uptake within hepatocytes only in the Ca^2+-free culture) divided by (time of incubation multiplied by the concentration of the candidate compound in the buffer medium). In some embodiments, a biliary clearance value can be calculated as the ratio of the mass in the bile canaliculi and the area under the curve (AUC) in culture medium, wherein the AUC represents the integral of candidate compound in the medium from time 0 to time T (time can be measure in any desired units, and is usually measured in minutes). Indeed, the term AUC can refer to the following equation: […]
The data for each compound was determined in sandwich-cultured rat hepatocytes at a concentration of 1 μM and an exposure time of 10 minutes in buffer (no protein), in buffer with 4% BSA, or in rat serum.
This latter method is the current industry standard.

[2] = Free fraction by equilibrium dialysis in serum; type: in vitro ADME; settings: DPDPE line: 1 uM; for fraction unbound: serum
Excerpt: (§5) The free fraction is the amount of compound that is considered thermodynamically free in solution compared to the amount which is considered to be thermodynamically bound to the albumin proteins.

4% BSA = 4% BSA (Bos taurus, UniProt P02769); assay: Free fraction by equilibrium dialysis in 4% BSA; type: in vitro ADME; settings: bovine, DPDPE line: 1 uM
Sequence of 4% BSA (P02769 25-607): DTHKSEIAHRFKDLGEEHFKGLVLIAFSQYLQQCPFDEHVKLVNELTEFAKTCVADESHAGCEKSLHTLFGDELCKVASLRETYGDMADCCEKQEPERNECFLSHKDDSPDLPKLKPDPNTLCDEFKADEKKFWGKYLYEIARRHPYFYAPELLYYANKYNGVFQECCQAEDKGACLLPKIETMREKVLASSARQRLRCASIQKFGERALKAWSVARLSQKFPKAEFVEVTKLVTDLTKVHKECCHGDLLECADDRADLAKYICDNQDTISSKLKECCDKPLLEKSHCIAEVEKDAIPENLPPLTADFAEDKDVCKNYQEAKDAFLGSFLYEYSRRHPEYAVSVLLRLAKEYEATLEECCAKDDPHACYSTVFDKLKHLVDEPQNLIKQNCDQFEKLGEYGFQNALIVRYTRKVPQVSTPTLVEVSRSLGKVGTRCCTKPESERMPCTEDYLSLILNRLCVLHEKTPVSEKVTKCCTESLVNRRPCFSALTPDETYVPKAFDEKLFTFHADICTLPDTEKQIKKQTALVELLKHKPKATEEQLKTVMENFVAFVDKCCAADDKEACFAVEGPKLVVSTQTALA
Excerpt: as §5

Rat Hepatocytes = assay: Hepatic intracellular concentration (ICC) in rat hepatocytes, observed vs predicted; type: in vitro ADME; settings: for Observed ICC (uM) BSA: one-step method with BSA
Excerpt: The hepatic intracellular concentration (ICC) of a compound, which reflects the balance of the uptake, metabolism, and efflux out of the cell, can also be determined in the absence and presence of protein.

[3] = cited from earlier work
human hepatocytes = assay: Intracellular concentration in human hepatocytes in the presence of albumin protein; type: in vitro ADME
Excerpt: The observed effects of protein on the intracellular concentration, could lead to an over- or under-prediction of a compound's effect, drastically changing the expected clinical outcome. […] However, the intracellular concentrations never achieved high enough levels to result in hepatotoxic effects. […] Since the effect of protein was unanticipated and not predictable, it is desirable to expose the cell to protein during the experiment.

[4] = absence of protein (HBSS), adjusted with free fraction of Table 1, 1 μM
[5] = HBSS value adjusted with free fraction, DPDPE 10 uM

Sequence of CYP2C9 (P11712 whole entry): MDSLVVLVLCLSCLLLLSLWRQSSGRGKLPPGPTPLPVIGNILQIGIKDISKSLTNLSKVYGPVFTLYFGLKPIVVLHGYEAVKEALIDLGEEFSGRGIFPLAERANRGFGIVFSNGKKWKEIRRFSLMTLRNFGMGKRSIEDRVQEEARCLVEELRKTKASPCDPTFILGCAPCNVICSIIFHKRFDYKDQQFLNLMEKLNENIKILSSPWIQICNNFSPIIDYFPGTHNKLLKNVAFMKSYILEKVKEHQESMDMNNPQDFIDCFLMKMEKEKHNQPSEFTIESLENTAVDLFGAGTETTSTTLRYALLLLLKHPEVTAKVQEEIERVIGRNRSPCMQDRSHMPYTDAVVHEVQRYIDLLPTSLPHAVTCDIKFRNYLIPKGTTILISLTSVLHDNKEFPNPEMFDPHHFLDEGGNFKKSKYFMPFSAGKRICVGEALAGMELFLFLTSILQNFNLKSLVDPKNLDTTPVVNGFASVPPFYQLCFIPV

| Structure (SMILES) | Intrinsic Biliary Clearance, BSA [1] [mL/min/kg] | Intrinsic Biliary Clearance, No Protein ([1]; rat) [mL/min/kg] | Predicted Cl (ml/min/Kg) HBSS ([1]; rat, 10 min, 1 μM) [mL/min/kg] | Intrinsic Biliary Clearance, Serum ([1]; rat) | fraction unbound [2] | fraction unbound (4% BSA) | Predicted ICC (uM) HBSS (Rat Hepatocytes; [4]) [µM] | Observed ICC (uM) BSA (Rat Hepatocytes; 1 μM) [µM] | also measured |
| --- | --- | --- | --- | --- | --- | --- | --- | --- | --- |
| OC(Cn1cncn1)(Cn1cncn1)c1ccc(F)cc1F [Fluconazole] | – | – | – | – | – | – | – | – | CYP2C9 enzyme activity reduced to % of control (CYP2C9): 24.4-45.1 % of control |
| CC(=O)N1CCN(c2ccc(OCC3COC(Cn4ccnc4)(c4ccc(Cl)cc4Cl)O3)cc2)CC1 (stereo not drawn) [Ketoconazole] | – | – | – | – | – | – | – | – | CYP3A4/5 Mean % Remaining (CYP3A4; 4% BSA, inhibitor 0.0500 μM): 54.6%; CYP3A4/5 Mean % Remaining (CYP3A4; 4% BSA, inhibitor 0.250 μM): 40.8%; CYP3A4/5 Mean % Remaining (CYP3A4; No BSA, inhibitor 0.050 μM): 45.1%; CYP3A4/5 Mean % Remaining (CYP3A4; No BSA, inhibitor 0.250 μM): 24.4% |
| CCCCC(=O)N(Cc1ccc(-c2ccccc2-c2nnn[nH]2)cc1)[C@H](C(=O)O)C(C)C [Valsartan] | 3.06 | 4.73 | 0.36 | 1.39 | 0.004 | 0.075 | 0.44 | 0.22 | – |
| CC[C@H](C)C(=O)O[C@H]1C[C@H](O)C=C2C=C[C@H](C)[C@H](CC[C@@H](O)C[C@@H](O)CC(=O)O)[C@H]21 [Pravastatin] | 6.47 | 7.35 | 5.39 | 2.06 | 0.554 | 0.734 | – | – | – |
| CCCc1nc2c(C)cc(-c3nc4ccccc4n3C)cc2n1Cc1ccc(-c2ccccc2C(=O)O)cc1 [telmisartan] | – | – | – | – | – | – | – | – | Toxicity associated with its use (in vivo data) [3]: no known toxicity; Intracellular concentration in presence of protein greater than predicted from protein-free data adjusted by free fraction (human hepatocytes): 100 × |
| CC(C)c1nc(N(C)S(C)(=O)=O)nc(-c2ccc(F)cc2)c1/C=C/[C@@H](O)C[C@@H](O)CC(=O)O [Rosuvastatin] | 164 | 53.1 | 7.22 | – | – | 0.136 | 3.09 | 6.81 | Predicted biliary clearance compared with observed biliary clearance [1]: under-estimated by a significant amount |
| CC1(C)SSC(C)(C)[C@@H](NC(=O)[C@@H](N)Cc2ccc(O)cc2)C(=O)NCC(=O)N[C@@H](Cc2ccccc2)C(=O)N[C@H]1C(=O)O [DPDPE] | – | – | – | – | – | – | 1.42 | 1.98 | Predicted Cl (ml/min/Kg) HBSS [1, 5]: 4.24 mL/min/kg; Predicted Cl (ml/min/Kg) HBSS ([1]; measured in absence of protein (HBSS), adjusted with free fraction of Table 1, 1 μM): 5.69 mL/min/kg; Observed Cl (ml/min/Kg) BSA ([1]; 1 μM): 2.51 mL/min/kg; Observed Cl (ml/min/Kg) BSA ([1]; DPDPE 10 uM): 3.32 mL/min/kg; Predicted biliary clearance compared with observed biliary clearance ([1]; two-step prediction vs measurement with BSA, DPDPE at 1 μM): over-estimated; Predicted ICC (uM) HBSS (Rat Hepatocytes; [5]): 13.63 µM; Observed ICC (uM) BSA (Rat Hepatocytes; DPDPE 10 uM): 15.51 µM |

Second part, led by results:

| Intrinsic Biliary Clearance, BSA [1] [mL/min/kg] | Intrinsic Biliary Clearance, No Protein ([1]; rat) [mL/min/kg] | Predicted Cl (ml/min/Kg) HBSS ([1]; rat, 10 min, 1 μM) [mL/min/kg] | Intrinsic Biliary Clearance, Serum ([1]; rat) | fraction unbound [2] | fraction unbound (4% BSA) | Predicted ICC (uM) HBSS (Rat Hepatocytes; [4]) [µM] | Observed ICC (uM) BSA (Rat Hepatocytes; 1 μM) [µM] | Structure (SMILES) | also measured |
| --- | --- | --- | --- | --- | --- | --- | --- | --- | --- |
| 0.19 | 0.54 | 0.23 | 0.91 | 0.499 | 0.428 | 0.48 | 0.47 | CN(Cc1cnc2nc(N)nc(N)c2n1)c1ccc(C(=O)N[C@@H](CCC(=O)O)C(=O)O)cc1 [Methotrexate] | – |
| 140 | 52 | 2.44 | 277.50 | 0.004 | 0.047 | – | – | O=C(O)C[C@H](O)C[C@H](O)/C=C/c1c(C2CC2)nc2ccccc2c1-c1ccc(F)cc1 [Pitavastatin] | Predicted biliary clearance compared with observed biliary clearance [1]: under-estimated by a significant amount |
| 9.25 | 10.4 | 8.85 | 5.12 | – | 0.852 | 1.59 | 1.29 | C[C@H]1O[C@@H](O[C@H]2[C@@H](O)C[C@H](O[C@H]3[C@@H](O)C[C@H](O[C@H]4CC[C@@]5(C)[C@H](CC[C@@H]6[C@@H]5C[C@@H](O)[C@]5(C)[C@@H](C7=CC(=O)OC7)CC[C@]65O)C4)O[C@@H]3C)O[C@@H]2C)C[C@H](O)[C@@H]1O [Digoxin] | Free Fraction in Serum [2]: 0.727 |
